In patent US20200217837A1, “CHROMATIN PROTECTIVE THERAPEUTICS AND CHROMATIN HETEROGENEITY” (Northwestern University, priority 2016, published 2020):
“Also recorded” adds a separate entry of the source.

Assays:
[1] = system: cancer cell lines; assay: Single-cell sequencing of transcriptional heterogeneity; format: cell-based
Source text: Although partial regulation of folding is achieved through molecular-specific chromatin remodelers (Refs. 12c, 40c; incorporated by reference in their entireties) (CTCF, SWI/SNF, histone modifications), a more efficient global regulation is governed by physico-chemical mechanisms (FIG. 16). A cardiovascular drug digoxin provides one such example.

[2] = system: cancer cell lines; assay: Live cell PWS of chromatin folding/heterogeneity (D, Σ); format: cell-based; settings: for capacity to reduce chromatin folding (D↓, Σ↓): PWS on live cells; for structural alteration of chromatin folding: five cell line models (A2780, M248, MDA-MB-231, MES-SA, MX2); for regulation of chromatin topology / heterogeneity: live cells, LC-PWS, within minutes of treatment where stated; for chromatin heterogeneity Σ: within 30 min, p<0.01
Experimental: Test compounds were screened for CPT activity using live cell PWS imaging. Control and 30-60 minute CPT-treated cells were imaged with live cell PWS to determine their effect on nuclear nanoscale heterogeneity (See FIG. 11A for exemplary tested compounds). […]

[3] = system: A2780.m248 ovarian cancer cells; assay: Live cell PWS screen for CPT activity (mean nuclear sigma); format: cell-based; settings: 30-60 minute treated cells
[4] = system: CHO cells; assay: Mitochondrial membrane potential by TMRE flow cytometry; format: cell-based, Chinese Ovarian Hamster; settings: 10 μM CCCP
Experimental: (§1) HeLa and CHO cells were grown and prepared for live cell imaging as previously described. Cell measurements for a single field of view were sequentially obtained for 3 minutes prior to treatment with CCCP. HeLa (n=31 from 6 independent experiments) and CHO (n=159 from 5 independent experiments) cells were treated with 10 μM for 15 minutes and imaged before and after treatment. Mock treated cells were incubated with 0.01% DMSO to account for the effect of DMSO solvent on the cells. […] Mitochondrial membrane potential ΔΨm was measured by flow cytometry (BD LSRII at the Northwestern Flow Cytometry Core) for tetramethylrhodamine (TMRE, purchased from Life Technologies, Carlsbad Calif.) stained cells. In brief, cells were trypsinized and immediately stained with 50 nM of TMRE for 30 minutes. Cells were washed twice with PBS after staining and suspended in 1 ml of PBS. CCCP treated cells were treated for 15 minutes to replicate conditions during live cell live cell PWS imaging. At least 20,000 cells were selected by forward and side scattering channels for each group, with a double elimination of doublets from the final analysis. Mean TMRE intensity from each replicate population was used for representative comparison between treated and untreated groups.

[5] = system: HeLa cells; assay: Live cell PWS, mean nuclear Σ (chromatin nano-architecture); format: cell-based
Experimental: (§2) Prior to imaging, media within petri dishes was exchanged with fresh, RPMI-1640 Media (lacking phenol red pH indicator, purchased from Life Technologies) supplemented with 10% FBS (Sigma Aldrich, St. Louis Mo.). For DNA fragmentation experiments, live cell PWS images were acquired at room temperature (22° C.) and in trace CO2 (open air) conditions for cells subsequently stained with Hoechst 33342. During acquisition of time series data (UV and Controls, metabolic perturbation), cells were maintained at physiological conditions for the duration of the experiment. For imaging, a reference scattering spectra was obtained from an open surface of the substrate coverslip immersed in media prior to any cellular imaging to normalize the intensity of light scattered for each wavelength at each pixel. Σ is defined as the spectral standard deviation of our measured reflectance intensity normalized to this reference scattering spectra from the substrate-media interface. […] For Hoechst induced DNA damage experiments, significance was determined using Student's T-test with unpaired, unequal variance on nuclear Δ(Σ) between the conditions indicated in the experiment in both Mathematica v.10 and Microsoft Excel (Microsoft, Redmond, Wash.) with n=146 for Hoechst stained HeLa cells from 11 replicates and n=87 for Hoechst stained CHO cells from 5 replicates. […]

[6] = system: CHO cells; assay: as above; format: cell-based, Chinese Ovarian Hamster
Experimental: as §2

[7] = system: HeLa cells; assay: Mitochondrial membrane potential by TMRE flow cytometry; format: cell-based; settings: 10 μM CCCP
Experimental: as §1

[8] = system: MES-SA; assay: Cell survival by surface coverage (% inhibition); format: cell-based; settings: Sarcoma MES-SA
[9] = system: MES-SA MX2; assay: Cell survival by surface coverage (% inhibition); format: cell-based; settings: Sarcoma MES-SA MX2
[10] = system: pancreatic ductal carcinoma PDX model; assay: In vivo validation of CPT on patient derived xenographs; settings: single agent treatment
Experimental: The cell lines were treated with standard (IC50) doses of commonly used chemotherapy drugs (5-FU, Paclitaxel, Oxaliplatin, Docetaxel, Gemcitabine, FOLFIRI). […] Experiments were conducted during development of embodiments herein to test CPT in vivo on patient derived xenographs (PDX) of pancreatic ductal carcinoma (FIG. 15i).

[11] = system: MDA-MB-231; assay: Cell survival by surface coverage (% inhibition); settings: Breast MDA-MB-231
[12] = system: A2780.m248; assay: Cell survival by surface coverage (% inhibition / cell death); format: cell-based; settings: for % Inhibition: Ovarian A2780.m248, after 48 hours, surface coverage relative to control
Experimental: These compounds were tested in combination with the chemotherapy drug paclitaxel.

[13] = system: A2780 cells; assay: LC-PWS microscopy quantification of chromatin heterogeneity; format: cell-based; settings: 5 nM for 24 hours
[14] = system: A2780; assay: Cell survival by surface coverage (% inhibition / cell death); settings: Ovarian A2780; after 48 hours, surface coverage relative to control
[15] = system: HeLa cells; assay: γ-H2A.X immunofluorescence (DNA fragmentation); format: cell-based; settings: Hoechst-stained cells after UV excitation versus mock-stained
Experimental: Co-registration of live cell PWS imaging and DNA strand damage using phospho-histone H2A.X was performed by immunofluorescent staining on three independent experiments. Cells were fixed for 20 min with 4% paraformaldehyde at room temperature, washed twice with phosphate buffered saline and a permeabilization/blocking step was performed with 0.1% Triton X-100 in 1% bovine serum albumin (Sigma Aldrich, St. Louis Mo.) for 20 min. Cells were again washed twice with PBS and then incubated with AlexaFluor 488 conjugated to anti-γH2A.X (serine 139 residue) rabbit monoclonal antibody (Cell Signaling, Beverly, […].) for 30 minutes. Following incubation with the antibody, cells were imaged using the FITC-EGFP filter on the live cell PWS microscope.

C[C@H]1O[C@@H](O[C@H]2[C@@H](O)C[C@H](O[C@H]3[C@@H](O)C[C@H](O[C@H]4CC[C@@]5(C)[C@H](CC[C@@H]6[C@@H]5C[C@@H](O)[C@]5(C)[C@@H](C7=CC(=O)OC7)CC[C@]65O)C4)O[C@@H]3C)O[C@@H]2C)C[C@H](O)[C@@H]1O [Digoxin, digoxin]
transcriptional divergence and heterogeneity [1]: lower intracellular transcriptional divergence and intercellular heterogeneity
capacity to reduce chromatin folding (D↓, Σ↓) [2]: reduce chromatin folding
chromatin D ([2]; cell culture, within 30 min after application): D↓
structural alteration of chromatin folding [2]: decreases chromatin folding
regulation of chromatin topology / heterogeneity [2]: homogenization of chromatin; also recorded: potent regulators of chromatin topology; also recorded: global regulators of chromatin heterogeneity
chromatin heterogeneity Σ [2]: Σ↓
mean nuclear sigma [3]: decrease in mean nuclear sigma

O=C(O[C@@H]1Cc2c(O)cc(O)cc2O[C@@H]1c1cc(O)c(O)c(O)c1)c1cc(O)c(O)c(O)c1 [EGCG]
capacity to reduce chromatin folding (D↓, Σ↓) [2]: reduce chromatin folding

COc1cc(/C=C/C(=O)CC(=O)/C=C/c2ccc(O)c(OC)c2)ccc1O [Curcumin]
capacity to reduce chromatin folding (D↓, Σ↓) [2]: reduce chromatin folding

CC1=C(CC(=O)O)c2cc(F)ccc2/C1=C\c1ccc([S+](C)[O-])cc1 (stereo not shown) [sulindac]
chromatin heterogeneity Σ [2]: not

N#CC(C#N)=NNc1cccc(Cl)c1 [CCCP, carbonyl cyanide m-chlorophenyl hydrazone]
regulation of chromatin topology / heterogeneity [2]: potent regulators of chromatin topology; also recorded: global regulators of chromatin heterogeneity
change in TMRE fluorescence [4]: no significant change
decrease in mean-nuclear Σ ([5]; 10 μM CCCP, 15 minutes): 10%
change in mean-nuclear Σ ([6]; 10 μM CCCP, 15 minutes): no significant increase
decrease in TMRE fluorescence [7]: 10 fold
ΔΨm as gauged by TMRE fluorescence [7]: rapidly lost ΔΨm

CC(=O)Oc1ccccc1C(=O)O [aspirin]
capacity to reduce chromatin folding (D↓, Σ↓) [2]: reduce chromatin folding
regulation of chromatin topology / heterogeneity [2]: potent regulators of chromatin topology; also recorded: global regulators of chromatin heterogeneity

CCCC(CCC)C(=O)O [valproic acid]
chromatin heterogeneity Σ [2]: Σ↓

CC(=O)O[C@@]12CO[C@@H]1C[C@H](O)[C@@]1(C)C(=O)[C@H](O)C3=C(C)[C@@H](OC(=O)[C@H](O)[C@@H](NC(=O)OC(C)(C)C)c4ccccc4)C[C@@](O)([C@@H](OC(=O)c4ccccc4)[C@H]21)C3(C)C [Docetaxel]
structural alteration of chromatin folding [2]: increases
% Inhibition [8]: 65%
% Inhibition [9]: 79%

Cn1cc(C2=C(c3coc4ccc(F)cc34)C(=O)NC2=O)c2cc3c(cc21)OCO3 [9-ING-41]
capacity to reduce chromatin folding (D↓, Σ↓) [2]: reduce chromatin folding
Σ / CPT strength in multiple cancer cell lines ([2]; colonic, pancreatic, ovarian, and mesothelioma lines): strong CPT; also recorded: decreases Σ
tumor size [10]: continued to expand in size

CC(=O)O[C@H]1C(=O)[C@@]2(C)[C@H]([C@H](OC(=O)c3ccccc3)[C@]3(O)C[C@H](OC(=O)[C@H](O)[C@@H](NC(=O)c4ccccc4)c4ccccc4)C(C)=C1C3(C)C)[C@]1(OC(C)=O)CO[C@@H]1C[C@@H]2O [Paclitaxel]
% Inhibition [11]: 50%
Surface coverage relative to control (% survival) ([12]; A2780.m248): 43%
% Inhibition [12]: 57%
structural alteration of chromatin folding [2]: increases
chromatin heterogeneity after treatment [13]: increase in chromatin heterogeneity
% Inhibition [14]: 21%

CC(C)[C@@H]1NC(=O)[C@H](C)OC(=O)[C@@H](C(C)C)NC(=O)[C@@H](C(C)C)OC(=O)[C@H](C(C)C)NC(=O)[C@H](C)OC(=O)[C@@H](C(C)C)NC(=O)[C@@H](C(C)C)OC(=O)[C@H](C(C)C)NC(=O)[C@H](C)OC(=O)[C@@H](C(C)C)NC(=O)[C@@H](C(C)C)OC1=O [valinomycin]
capacity to reduce chromatin folding (D↓, Σ↓) [2]: reduce chromatin folding
regulation of chromatin topology / heterogeneity [2]: potent regulators of chromatin topology; also recorded: global regulators of chromatin heterogeneity

CCOc1ccc(-c2nc3ccc(-c4nc5ccc(N6CCN(C)CC6)cc5[nH]4)cc3[nH]2)cc1 [Hoechst 33342]
γ-H2A.X antibody accumulation [15]: drastic accumulation
decrease in mean-nuclear Σ ([5]; Hoechst-stained, after a few seconds of UV exposure (excitation)): 17.01%
change (decrease) in mean-nuclear Σ ([6]; Hoechst-stained, after UV exposure (excitation)): −7.1%

Cc1ccc(-c2cc(C(F)(F)F)nn2-c2ccc(S(N)(=O)=O)cc2)cc1 [Celecoxib]
% Inhibition [12]: 0%
capacity to reduce chromatin folding (D↓, Σ↓) [2]: reduce chromatin folding
regulation of chromatin topology / heterogeneity [2]: homogenization of chromatin; also recorded: potent regulators of chromatin topology; also recorded: global regulators of chromatin heterogeneity
chromatin heterogeneity Σ [2]: Σ↓
% Inhibition [14]: 0%
mean nuclear sigma [3]: decrease in mean nuclear sigma

Nc1ccn([C@@H]2O[C@H](CO)[C@@H](O)C2(F)F)c(=O)n1 [gemcitabine]
tumor size [10]: continued to expand in size
